From article PMC4657899, “Design, Synthesis and In Vitro Activity of Anticancer Styrylquinolines. The p53 Independent Mechanism of Action” (PLoS ONE, 2015)

Assays:
GM 07492 = test: MTS cytotoxicity assay, normal fibroblasts GM 07492; format: cell-based; conditions: Fibroblast, 72 h incubation, normal human fibroblasts, mean ± SD
Experimental: (§1) The human colon adenocarcinoma cell line HCT116 along with wild type p53 (p53^+/+) were obtained from the ATCC. The normal human fibroblast cell line GM 07492 and HCT116 with a p53 deletion (p53^-/-) were kindly provided by prof. M. Rusin from Maria Sklodowska-Curie Memorial Cancer Center and Institute of Oncology in Gliwice, Poland. Cells were grown as monolayer cultures in 75 cm^2 flasks (Nunc) in Dulbecco’s modified Eagle’s medium with an antibiotic gentamicin (200 μL/100 mL medium). DMEM for HCT116 were supplemented with 12% heat-inactivated fetal bovine serum (Gibco) and for GM 07492 with 15% fetal bovine serum (Gibco). Cells were cultured under standard conditions at 37°C in a humidified atmosphere at 5% CO2.
(§2) The cells were seeded in 96-well plates 24 h before the addition of the compounds that were tested. The assay was performed following a 72 h incubation with varying concentrations of the agents that were tested. The results were calculated as IC50 values (using GraphPad Prism 5). Each individual compound was tested in triplicate in a single experiment with each experiment being repeated three times. After a 72 h incubation with the compounds that were tested, 20 μL of The CellTiter 96®AQueous One Solution—MTS (Promega) solution was added to each well (with 100 μL DMEM without phenol red) and incubated for 1 h at 37°C. The optical densities of the samples were analyzed at 490 nm. Results were expressed as a percentage of the control.

HCT116 (p53-/-) = test: MTS anti-proliferative assay, HCT116 (p53-/-); format: cell-based, human; conditions: for IC50: Homo sapiens, HCT-116, MTS, 72 h incubation, mean ± SD
Experimental: as §1, §2

HCT116 (p53+/+) = test: MTS anti-proliferative assay, HCT116 (p53+/+); format: cell-based, human; conditions: Homo sapiens, HCT-116, 72 h incubation, mean ± SD
Experimental: as §1, §2

PARP in HCT-116 cells = test: Immunoblotting, PARP cleavage; format: cell-based, human; conditions: 0, 10, 20, 40 μM
Experimental: Specific antibodies were purchased from Sigma-Aldrich (anti-PARP, anti-tubulin and peroxidase-labeled secondary antibodies). Briefly, cellular lysates were prepared by harvesting cells in a Laemmli sample buffer. Proteins were separated on SDS-polyacrylamide gels and electroblotted onto nitrocellulose membranes. After blocking, the membranes were incubated with specific primary antibodies overnight, washed and then incubated with peroxidase-conjugated secondary antibodies. Finally, peroxidase activity was detected with ECL+ reagents (AP Biotech) using a CCD camera LAS-4000 (Fujifilm).

[1] = test system: caspase-3 and -7 in HCT116 (p53-/-) cells; test: Caspase-Glo 3/7 assay, HCT116 (p53-/-); format: cell-based, human; conditions: IC50 concentration, 48 h
Experimental: (§3) To measure caspase-3 and -7 activities, a luminescent Caspase-Glo 3/7 assay was performed. HCT116 (p53^+/+) and (p53^-/-) cells were seeded onto black 96-well plates at a density of 3,500 cells/well. […] After 48 h a Caspase-Glo 3/7 Assay (Promega) was performed according to the manufacturer’s instructions. After adding 100 μL of Caspase3/7 GloReagent, cells were incubated for 2.5 h at room temperature. The luminescence was measured using a multi-plate reader (Synergy 4, Bio Tek) with an integration time of 1 second per well. The experiments were performed in duplicate.

[2] = test system: caspase-3 and -7 in HCT116 (p53+/+) cells; test: Caspase-Glo 3/7 assay, HCT116 (p53+/+); format: cell-based, human; conditions: IC50 concentration, 48 h, relative to doxorubicin
Experimental: as §3

HCT116 p53-/- cells = test system: HCT116 p53-/- cells; design: method as in PMID 12027451; conditions: cited from earlier work
Calf-thymus DNA (CT-DNA) = test: Spectrophotometric DNA binding (intercalation) study with CT-DNA; conditions: for % hypochromism: 1.5 h 37°C, Tris-HCl pH 7.9; for % hypochromism / Δε: at the (first) absorption band (CP-31398: 312); for shift of the wavelength of maximum absorption, alone vs DNA-bound / Changes in absorbance: S3 Table; for Changes in absorbance: with CT-DNA
Experimental: For the DNA binding studies, Calf-thymus DNA (CT-DNA) was purchased from Sigma Aldrich. The lyophilized CT-DNA was dissolved in 10 mM Tris-HCl, pH 7.9, mixed gently and left overnight at 4°C. Then, the concentration of CT-DNA was determined from the absorbance at 260 nm using an extinction coefficient of 6600 M^-1cm^-1. […] Afterwards, 18 μM CT-DNA was added to the prepared solutions and were incubated for 1.5 h at 37°C with occasional vortexing. Absorption spectra were measured using a Hitachi U-2900 spectrophotometer in range of 200–600 nm. All absorption spectra were imported and compared in OriginPro 8.0.

HCT116 -/- = test: Trypan blue staining test, HCT116 -/-; format: cell-based, human; conditions: Homo sapiens, HCT-116; S2 Table, trypan blue cell counting, 72 h
Experimental: (§4) The cells were seeded in 3 cm Petri dishes (Nunc) and incubated at 37°C. After 24h, solutions […]
(§5) a 72 h incubation with tested compounds, the cells were trypsinize d with 0.05% Trypsin -EDTA solution (Sigma). Then, 90µl of suspension cells transferred into 96 -well plate containing 10µl Trypan blue reagent in wells. The cells were counted under an optical inverted microscope Olympus CKX31. The results from three independent experiment were calculated as IC 50 values using GraphPad Prism 5 software.

HCT116 +/+ = test: Trypan blue staining test, HCT116 +/+; format: cell-based, human; conditions: Homo sapiens, HCT-116; S2 Table, trypan blue cell counting, 72 h
Experimental: as §4, §5

colon cancer cells = test system: colon cancer cells; design: method as in Arafa et al.; conditions: ref Arafa et al.; cited from earlier work
P388 cell line = test system: P388 cell line; design: method as in PMID 17904844; conditions: cited from earlier work
SK-N-MC cell line = test system: SK-N-MC cell line; design: method as in PMID 17142046; conditions: cited from earlier work
[3] = 18 μM CT-DNA, CP-31398 absorption band 350

| melting point [°C] | IC50 (HCT116 (p53-/-)) [µM] | IC50 (HCT116 (p53+/+)) [µM] | SMILES | IC50 (GM 07492) [µM] | also measured |
| --- | --- | --- | --- | --- | --- |
| 117 | 5.78 ± 0.78 | 12.1 ± 3.02 | CC(=O)Oc1cccc2ccc(C=Cc3ccccc3F)nc12 [12b] | > 25 | times more effective against HCT116 (p53-/-) than against wild type cells (HCT116 (p53-/-); ratio of MTS IC50 values): 2–3 times |
|  | 18.4 ± 1.36 | 24.6 ± 4.36 | COc1cccc(C=Cc2ccc3cccc(O)c3n2)c1 [13b] | > 25 |  |
| 194 | 11.4 ± 1.02 | 17.9 ± 1.67 | CC(=O)Oc1ccc(C=Cc2ccc3cccc(OC(C)=O)c3n2)c(OC(C)=O)c1OC(C)=O [14b] |  |  |
| 100 | 12.8 ± 3.53 | 15.8 ± 3.32 | CCOc1ccccc1C=Cc1ccc2cccc(O)c2n1 [15b, 2 – [2-(2-Ethoxyphenyl)vinyl]quinolin-8-ol] |  |  |
| 130 | 16.1 ± 4.84 | > 25 | CCOc1ccc(C=Cc2ccc3cccc(O)c3n2)cc1 [16b, 2 – [2-(4-Ethoxyphenyl)vinyl]quinolin-8-ol] |  |  |
|  | 7.97 ± 3.24 | 9.84 ± 1.79 | Oc1cccc2ccc(C=Cc3ccccc3Cl)nc12 [17b, 2 – [2-(2-Chlorophenyl)vinyl]quinolin-8-ol] | 20.2 ± 6.52 | PARP cleavage (PARP in HCT-116 cells): clearly observable |
| 316 | 15.2 ± 1.31 | 16.1 ± 0.88 | Oc1ccccc1C=Cc1ccc2cccc(O)c2n1 [18b, 2 – [2-(2-Hydroxyphenyl)vinyl]quinolin-8-ol] |  |  |
|  | 10.6 ± 1.23 | 16.3 | Oc1cccc(C=Cc2ccc3cccc(O)c3n2)c1 [19b, 2 – [2-(3-Hydroxyphenyl)vinyl]quinolin-8-ol] |  |  |
| 273 | > 25 | > 25 | Oc1ccc(C=Cc2ccc3cccc(O)c3n2)c(O)c1 [20b, 2 – [2-(2,4-Dihydroxyphenyl)vinyl]quinolin-8-ol] |  |  |
|  | 26.3 ± 1.41 | 18.6 ± 0.92 | COc1ccc(/C=C/c2nc(NCCCN(C)C)c3ccccc3n2)cc1 [CP-31398] | 12.3 ± 0.54 | Caspase-3/7 activity in p53-/- cells [1]: did not increase the activity of caspases; Caspase-3/7 activity in wild type cells [2]: two times higher than doxorubicin; activity against HCT116 p53-/- cells versus wild-type (p53+/+) (HCT116 p53-/- cells): several times less active; % hypochromism (Calf-thymus DNA (CT-DNA); 18 μM CT-DNA): 41,4%; % hypochromism, second absorption band (Calf-thymus DNA (CT-DNA); [3]): 37,4%; Δε, second absorption band (Calf-thymus DNA (CT-DNA); [3]): 1693,3 M−1 cm−1; Δε (Calf-thymus DNA (CT-DNA); 18 μM CT-DNA): 1515,6 M−1 cm−1; shift of the wavelength of maximum absorption, alone vs DNA-bound (Calf-thymus DNA (CT-DNA); 18 μM CT-DNA): 0; Changes in absorbance (Calf-thymus DNA (CT-DNA)): hypochromism |
|  |  |  | COc1cc(/C=N/NC(=O)COc2c(Br)cc(Br)c3cccnc23)cnc1O [III] |  | IC50 (colon cancer cells): 4.7 µM |
|  |  |  | Cc1ccc2c(n1)C(=O)C(NC(=O)/C=C/c1ccccc1)=CC2=O [IV] |  | IC50 (P388 cell line): 1.44 µM |
|  |  |  | Oc1cccc2ccc(/C=C/c3ccc(Cl)cc3)nc12 [I] |  | IC50 (SK-N-MC cell line): 0.77 µM |

| SMILES | melting point [°C] | IC50 (HCT116 (p53-/-)) [µM] | IC50 (HCT116 (p53+/+)) [µM] | IC50 (GM 07492) [µM] | also measured |
| --- | --- | --- | --- | --- | --- |
| COc1cccc2c1C(=O)c1c(O)c3c(c(O)c1C2=O)C[C@@](O)(C(=O)CO)C[C@@H]3O[C@H]1C[C@H](N)[C@H](O)[C@H](C)O1 [Doxorubicin] |  | 1.65 ± 0.21 | 5.95 ± 0.5 | 3.38 ± 1.29 | IC50 (HCT116 -/-): 1.28 µM; IC50 (HCT116 +/+): 2.83 µM; % hypochromism (Calf-thymus DNA (CT-DNA); 18 μM CT-DNA): 34.2%; % hypochromism (Calf-thymus DNA (CT-DNA); 18 μM CT-DNA, listed as DOX): 34,2%; Δε (Calf-thymus DNA (CT-DNA); 18 μM CT-DNA): 3235,6 M−1 cm−1; shift of the wavelength of maximum absorption, alone vs DNA-bound (Calf-thymus DNA (CT-DNA); 18 μM CT-DNA): 10; Changes in absorbance (Calf-thymus DNA (CT-DNA)): hypochromism; shift in the wavelength on DNA binding (Calf-thymus DNA (CT-DNA); blue shift for 5b, 6b, red shift for doxorubicin): 10 nm |
